Laboratory results reported in patent publication US8143288B2, “Inhibitors of HCV replication” (priority 2005, dated 2012).

test system: HCV 1b-377-neo replicon cells; assay: HCV replicon FRET assay; assay type: cell-based; conditions: Hepatitis C virus; HCV replicon; read-out: Activity (EC50)
From the text: The HCV replicon cell line was isolated from colonies as described by Lohman, et. al. (Science 1999, 285, 110-113, expressly incorporated by reference in its entirety) and used for all experiments. The HCV replicon has the nucleic acid sequence set forth in EMBL Accession No.: AJ242652, the coding sequence of which is from nt 1801 to 7758.
The coding sequence of the published HCV replicon was synthesized by Operon Technologies, Inc. (Alameda, Calif.), and the fall-length replicon was then assembled in plasmid pGem9zf(+) (Promega, Madison, Wis.) using standard molecular biology techniques. The replicon consists of (i) the HCV 5′ UTR fused to the first 12 amino acids of the capsid protein, (ii) the neomycin phosphotransferase gene (neo), (iii) the IRES from encephalomyocarditis virus (EMCV), and (iv) HCV NS3 to NS5B genes and the HCV 3′ UTR. Plasmid DNAs were linearized with ScaI and RNA transcripts were synthesized in vitro using the T7 MegaScript transcription kit (Ambion, Austin, Tex.) according to manufacturer's directions.
To generate cell lines, 4×10^6 Huh-7 cells (kindly provided by R. Bartenschlager and available from Health Science Research Resources Bank, Japan Health Sciences Foundation) were electroporated (GenePulser System, Bio-Rad) with 10 micrograms(“μg”) of RNA transcript and plated into 100-mm dishes. After 24 hours, selective media containing 1.0 milligrams/milliliter (“mg/mL”) G418 was added and media was changed every 3 to 5 days. […] These cell lines were maintained at 37° C., 5% CO2, 100% relative humidity in DMEM (Cat#11965-084) Gibco-BRL, Rockville, Md., with 10% heat inactivated calf serum (Sigma), 10 mL of 100× penicillin/streptomycin (Cat#15140-122) Gibco-BRL, Rockville, Md., Geneticin (Cat#10131-027) Gibco-BRL, Rockville, Md. at 1 mg/mL. One of the cell lines (deposited as ATCC Accession No. PTA-4583 in the American Type Culture Collection) which had approximately 3,000 copies of HCV replicon RNA/cell was used for development of the assay (HCV 1b-377-neo replicon cells).
To perform the HCV FRET screening assay, 96-well cell culture plates were used. The FRET peptide (Anaspec, Inc., San Jose, Calif.) (Taliani et al., Anal. Biochem. 1996, 240, 60-67, hereby incorporated by reference in its entirety) contains a fluorescence donor, EDANS, near one end of the peptide and an acceptor, DABCYL, near the other end. The fluorescence of the peptide is quenched by […] resonance energy transfer (RET) between the donor and the acceptor, but as the NS3 protease cleaves the peptide the products are released from RET quenching and the fluorescence of the donor becomes apparent.
The assay reagent was made as follows: 5X luciferase cell culture lysis (Cat#E153A, Promega, Madison, Wis.) diluted to 1X with dH2O, NaCl added to […] final, the FRET peptide diluted to 20 micromolar (“μM”) final from a 2 mM stock. HCV 1b-377-neo replicon cells were trypsinized, placed into each well of a 96-well plate and allowed to attach overnight. The next day, the test compounds were added to columns 1 through 10; column 11 was media plus DMSO only, and column 12 contained a titration of interferon or an HCV specific inhibitor as a control (1000 units for A12, B12, 100 units for C12, D12, 10 units for E12, F12 and 1 unit for G12, H12). […] In addition, naïve Huh-7 cells could also be used to replace wells A12 and B12 as a background control.
At subsequent various times (typically 72 hours), 10% final volume Alamar blue (Cat#00-100, Trek Diagnostics, Cleveland, Ohio) was added to each well. The plates were returned to the incubator for 5 hours and then read in the Cytoflour (PE Biosystems) to determine Alamar blue conversion in each well as a measure of cellular toxicity.

COCC(=O)N1CCC[C@H]1C(=O)Nc1ccc(/C=C/c2ccc(NC(=O)[C@@H]3CCCN3C(=O)Cc3cc(C)no3)cc2)cc1 [Example 95] and Cc1cc(CC(=O)N2CCC[C@H]2C(=O)Nc2ccc(/C=C/c3ccc(NC(=O)[C@@H]4CCCN4C(=O)CN(C)C)cc3)cc2)on1 [Example 97] fall in the same range of EC50: 0.1 to 90 nM for the first, 0.1 to 90 nM for the second.

Cc1cc(CC(=O)N2CCC[C@H]2C(=O)Nc2ccc(/C=C/c3ccc(NC(=O)[C@@H]4CCCN4C(=O)C4CCC4)cc3)cc2)on1 [Example 96] and Cc1cc(CC(=O)N2CCC[C@H]2C(=O)Nc2ccc(/C=C/c3ccc(NC(=O)[C@@H]4CCCN4C(=O)C(C)C)cc3)cc2)on1 [Example 98] fall in the same range of EC50: 0.1 to 90 nM for the first, 0.1 to 90 nM for the second.

CSCC(=O)N1CCC[C@H]1C(=O)Nc1ccc(/C=C/c2ccc(NC(=O)[C@@H]3CCCN3C(=O)Cc3cccs3)cc2)cc1 [Example 99] and CCC(=O)N1CCC[C@H]1C(=O)Nc1ccc(/C=C/c2ccc(NC(=O)[C@@H]3CCCN3C(=O)Cc3cccs3)cc2)cc1 [Example 103] fall in the same range of EC50: 0.1 to 90 nM for the first, 0.1 to 90 nM for the second.

COCC(=O)N1CCC[C@H]1C(=O)Nc1ccc(/C=C/c2ccc(NC(=O)[C@@H]3CCCN3C(=O)Cc3cccs3)cc2)cc1 [Example 100] and CN(C)CC(=O)N1CCC[C@H]1C(=O)Nc1ccc(/C=C/c2ccc(NC(=O)[C@@H]3CCCN3C(=O)Cc3cccs3)cc2)cc1 [Example 101] fall in the same range of EC50: 0.1 to 90 nM for the first, 0.1 to 90 nM for the second.

CC(C)C(=O)N1CCC[C@H]1C(=O)Nc1ccc(/C=C/c2ccc(NC(=O)[C@@H]3CCCN3C(=O)Cc3cccs3)cc2)cc1 [Example 102] and Cn1cccc1CC(=O)N1CCC[C@H]1C(=O)Nc1ccc(/C=C/c2ccc(NC(=O)[C@@H]3CCCN3C(=O)Cc3cccn3C)cc2)cc1 [Example 105] fall in the same range of EC50: 0.1 to 90 nM for the first, 0.1 to 90 nM for the second.

First: O=C(Nc1ccc(/C=C/c2ccc(NC(=O)[C@@H]3CCCN3C(=O)Cc3ccccc3F)cc2)cc1)[C@@H]1CCCN1C(=O)Cc1ccccc1F [Example 106]
Second: O=C(Nc1ccc(/C=C/c2ccc(NC(=O)[C@@H]3CCCN3C(=O)c3ccccc3F)cc2)cc1)[C@@H]1CCCN1C(=O)c1ccccc1F [Example 107]
The EC50 of the first is lower: 0.1 to 90 nM for the first, 100 to 1000 nM for the second. The first is the more potent here.

O=C(Nc1ccc(/C=C/c2ccc(NC(=O)[C@@H]3CCCN3C(=O)c3cc(F)ccc3F)cc2)cc1)[C@@H]1CCCN1C(=O)c1cc(F)ccc1F [Example 108] and Cc1ccccc1C(=O)N1CCC[C@H]1C(=O)Nc1ccc(/C=C/c2ccc(NC(=O)[C@@H]3CCCN3C(=O)c3ccccc3C)cc2)cc1 [Example 125] fall in the same range of EC50: 100 to 1000 nM for the first, 100 to 1000 nM for the second.

First: O=C1N[C@H]2[C@H](CS[C@H]2CCCCC(=O)N2CCC[C@H]2C(=O)Nc2ccc(/C=C/c3ccc(NC(=O)[C@@H]4CCCN4C(=O)Cc4ccccc4)cc3)cc2)N1 [Example 109]
Second: [N-]=[N+]=Nc1cccc(CC(=O)N2CCC[C@H]2C(=O)Nc2ccc(/C=C/c3ccc(NC(=O)[C@@H]4CCCN4C(=O)CCCC[C@@H]4SC[C@@H]5NC(=O)N[C@@H]54)cc3)cc2)c1 [Example 127]
The EC50 of the first is lower: 0.1 to 90 nM for the first, 100 to 1000 nM for the second. The first is the more potent here.

Compared with O=C(Nc1ccc(/C=C/c2ccc(NC(=O)[C@@H]3CCCN3C(=O)[C@H]3CCCO3)cc2)cc1)[C@@H]1CCCN1C(=O)[C@H]1CCCO1 [Example 110], O=C(Nc1ccc(/C=C/c2ccc(NC(=O)[C@@H]3CCCN3C(=O)[C@@H]3CCCO3)cc2)cc1)[C@@H]1CCCN1C(=O)[C@@H]1CCCO1 [Example 111] is higher in EC50: 0.1 to 90 nM for the first, 100 to 1000 nM for the second. The first is the more potent here.

Compared with CC(C)(C)OC(=O)N1CC(C(=O)N2CCC[C@H]2C(=O)Nc2ccc(/C=C/c3ccc(NC(=O)[C@@H]4CCCN4C(=O)C4CN(C(=O)OC(C)(C)C)C4)cc3)cc2)C1 [Example 112], CC(C)(C)O[C@@H]1C[C@@H](C(=O)Nc2ccc(/C=C/c3ccc(NC(=O)[C@@H]4C[C@@H](OC(C)(C)C)CN4C(=O)[C@H]4CCCO4)cc3)cc2)N(C(=O)[C@H]2CCCO2)C1 [Example 130] is lower in EC50: 100 to 1000 nM for the first, 0.1 to 90 nM for the second.

Cc1cccc(C(=O)N2CCC[C@H]2C(=O)Nc2ccc(/C=C/c3ccc(NC(=O)[C@@H]4CCCN4)cc3)cc2)n1 [Example 113] and O=C(Nc1ccc(/C=C/c2ccc(NC(=O)[C@@H]3CCCN3C(=O)C3Cc4ccccc43)cc2)cc1)[C@@H]1CCCN1 (some centres unmarked) [Example 115] fall in the same range of EC50: 1000 to 10000 nM for the first, 1000 to 10000 nM for the second.

Compared with Cc1cccc(C(=O)N2CCC[C@H]2C(=O)Nc2ccc(/C=C/c3ccc(NC(=O)[C@@H]4CCCN4C(=O)c4cccc(C)n4)cc3)cc2)n1 [Example 114], Cn1cccc1C(=O)N1CCC[C@H]1C(=O)Nc1ccc(/C=C/c2ccc(NC(=O)[C@@H]3CCCN3C(=O)c3cccn3C)cc2)cc1 [Example 121] is lower in EC50: 100 to 1000 nM for the first, 0.1 to 90 nM for the second. The second is the more potent here.

O=C(Nc1ccc(/C=C/c2ccc(NC(=O)[C@@H]3CCCN3C(=O)C3Cc4ccccc43)cc2)cc1)[C@@H]1CCCN1C(=O)C1Cc2ccccc21 (some centres unmarked) [Example 116] and CCc1ccccc1C(=O)N1CCC[C@@H]1C(=O)Nc1ccc(/C=C/c2ccc(NC(=O)[C@@H]3CCCN3C(=O)c3ccccc3CC)cc2)cc1 [Example 124] fall in the same range of EC50: 1000 to 10000 nM for the first, 1000 to 10000 nM for the second.

First: O=C(Nc1ccc(/C=C/c2ccc(N(C(=O)c3cccs3)C(=O)[C@@H]3CCCN3C(=O)c3cccs3)cc2)cc1)[C@@H]1CCCN1C(=O)c1cccs1 [Example 117]
Second: CC(=O)c1ccccc1C(=O)N1CCC[C@H]1C(=O)Nc1ccc(/C=C/c2ccc(NC(=O)[C@@H]3CCCN3C(=O)c3ccccc3C(C)=O)cc2)cc1 [Example 135]
The EC50 of the first is lower: 0.1 to 90 nM for the first, 1000 to 10000 nM for the second. The first is the more potent here.

[N-]=[N+]=Nc1ccc(C(=O)N2CCC[C@H]2C(=O)Nc2ccc(/C=C/c3ccc(NC(=O)[C@@H]4CCCN4C(=O)Cc4ccccc4)cc3)cc2)cc1 [Example 118] and [N-]=[N+]=Nc1cccc(CC(=O)N2CCC[C@H]2C(=O)Nc2ccc(/C=C/c3ccc(NC(=O)[C@@H]4CCCN4C(=O)Cc4ccccc4)cc3)cc2)c1 [Example 126] fall in the same range of EC50: 0.1 to 90 nM for the first, 0.1 to 90 nM for the second.

Compared with [N-]=[N+]=Nc1cccc(CC(=O)N2CCC[C@H]2C(=O)Nc2ccc(/C=C/c3ccc(NC(=O)[C@@H]4CCCN4C(=O)Cc4cccc(N=[N+]=[N-])c4)cc3)cc2)c1 [Example 128], COc1ccccc1C(=O)N1CCC[C@H]1C(=O)Nc1ccc(/C=C/c2ccc(NC(=O)[C@@H]3CCCN3C(=O)c3ccccc3OC)cc2)cc1 [Example 133] is higher in EC50: 0.1 to 90 nM for the first, 1000 to 10000 nM for the second.

CC(=O)N1C[C@H](OC(C)(C)C)C[C@H]1C(=O)Nc1ccc(/C=C/c2ccc(NC(=O)[C@@H]3C[C@@H](OC(C)(C)C)CN3C(=O)[C@H]3CCCO3)cc2)cc1 [Example 129] and CC(=O)N1C[C@H](OC(C)(C)C)C[C@H]1C(=O)Nc1ccc(/C=C/c2ccc(NC(=O)[C@@H]3C[C@@H](OC(C)(C)C)CN3C(=O)Cc3cccnc3)cc2)cc1 [Example 132] fall in the same range of EC50: 100 to 1000 nM for the first, 100 to 1000 nM for the second.

Compared with CC(C)(C)O[C@@H]1C[C@@H](C(=O)Nc2ccc(/C=C/c3ccc(NC(=O)[C@@H]4C[C@@H](OC(C)(C)C)CN4C(=O)Cc4cccnc4)cc3)cc2)N(C(=O)Cc2cccnc2)C1 [Example 131], CCCOc1ccccc1C(=O)N1CCC[C@H]1C(=O)Nc1ccc(/C=C/c2ccc(NC(=O)[C@@H]3CCCN3C(=O)c3ccccc3OCCC)cc2)cc1 [Example 134] is higher in EC50: 0.1 to 90 nM for the first, 1000 to 10000 nM for the second. The first is the more potent here.

CCC(=O)c1ccccc1C(=O)N1CCC[C@H]1C(=O)Nc1ccc(/C=C/c2ccc(NC(=O)[C@@H]3CCCN3C(=O)c3ccccc3C(=O)CC)cc2)cc1 [Example 136] and O=C(Nc1ccc(/C=C/c2ccc(NC(=O)[C@@H]3CCCN3C(=O)c3ccccc3-n3cccc3)cc2)cc1)[C@@H]1CCCN1C(=O)c1ccccc1-n1cccc1 [Example 137] fall in the same range of EC50: 1000 to 10000 nM for the first, 1000 to 10000 nM for the second.
